Results on three compounds are retold here after patent EP0358766A1, “METHOD OF STERILIZING PLANT ANTHERS” (VSESOJUZNY NAUCHNO-ISSLEDOVATELSKY INST. SELSKOKHOZYAISTV. …, priority 1988, dated 1989).

Data set [1] deals with Winterweizens Sorte Mironowskaya 808. Nature of the data set: Field test of gametocidal activity (anther sterilisation), winter wheat Mironowskaya 808. The data set is classed as in vivo, Weizen. The settings on record: for Kornzahl der Ähre bei freier Bestäubung / Kornzahl der Ähre im Isolator / Prozentsatz des Ansetzens von Samen bei freier Bestäubung: Mironowskaya 808, period V of organogenesis, 1% aqueous emulsion, 10 kg/ha; for Prozentsatz des Ansetzens von Samen bei freier Bestäubung: control = 100; for pest or weed control at 1 %, 10000 g/ha: read-out: Prozentsatz der Sterilität %. The source says: (§1) Die gametozide Aktivität der erfindungsgemäßen Sterilisationsmittel war in Feldversuchen in verschiedenen bodenklimatischen Zonen mit Teilstücken von 10 m^2 Größe in dreibis viermaliger Wiederholung festgestellt. Jedes Sterilisationsmittel wurde mindenstens 5 Jahre lang geprüft.
(§2) Die Entwicklung der Perioden der Organogenese wird zytologisch überwacht. Die Behandlung von Pflanzen mit dem Sterilisationsmittel erfolgt am Anfang der fünften Periode der Organogenese nach Kupermann.
(§3) Mit dem Ährenschieben verwirklicht man die Isolierung von Hauptähren und anderen Stockwerken in Pergametbeuteln. Bei Weizen und Tritikale werden Einzelisolatoren benutzt. Bei Roggen schließt man je 1 Ähre von […] verschiedenen nebeneinander befindlichen Pflanzen unter einen gemeinsamen Isolator ein. Bei Hirse wird jede Rispe getrennt isoliert. Der Sterilitätsprozentsatz (X) für Weizen, Roggen, Tritikale und Hirse wird nach der Formel [formula] ermittelt.
(§4) Die Kornzahl in nicht isolierten Ähren von Kontrollpflanzen wird bedingt für 100 % Ansetzen bei freier Bestäubung angenommen.
(§5) Um zuverlässige Angaben zu erhalten, verwendet man 20 bis 25 Isolatoren je Wiederholung für Weizen und Tritikale, 10 bis 15 Isolatoren jeder Wiederholung für Roggen und Hirse.
Pflanzen des Winterweizens Sorte Mironowskaya 808 werden in der V.Periode der Organogenese durch Zerstäubung der 2%igen wäßrigen Emulsion von 1,1,3-Tribrompropan mit Hilfe einer Rückenspritze behandelt.
Als Emulgierungsmittel setzt man 0,5 Masse% C12-C14--Kalziumalkylbenzolsulphonat zu. Als Adjuvans enthält die Emulsion 0,01 Masse% Dimethylsulfoxid. Der Verbrauch an Präparat beträgt 20 kg/ha bei 1000 Liter Wasserdurchsatz. Als Kontrolle dienen Pflanzen, behandelt mit einem Verdünner ohne Sterilisationsmittel. Die Ergebnisse sind in der Tabelle 1 angegeben.
Der ProzeB wird analog zu dem in Beispiel 1 beschriebenen durchgeführt. Als Sterilisationsmittel verwendet man eine 2%ige waßrige Emulsion von 1,1,3-Tribrom-4-chlorbutan, 1,1,2,3-Tetrabrompropan. Die Prüfergebnisse sind in der Tabelle 1 angegeben.
Der Prozeß wird analog zu dem in Beispiel 1 beschriebenen durchgeführt, nur daß man 1%ige wäßrige Emulsion von 1,2,3-Tribrompropan, 1,2-Dibrompropan, 1,1,3-Tribrom-3--chlorpropan, 1,2-Dibrom-3-chlorpropan, 1,3-Dibrompropan, 1,1,1,3-Tetrabromheptan, 1,1,3-Tribromheptan, 1,2-Dibromheptan verwendet. Die Präparatdosis beträgt 10 kg ha. Die Prüfergebnisse sind in der Tabelle 1 angegeben. Die gleichen Ergebnisse sind bei der Behandlung des Weizens Sorte Mironowskaya 808 in der VI. Periode der Organogenese erhalten.

In data set [2] the test system is Sommerweizens Sorte Moskowskaya 35. Nature of the data set: Field test of gametocidal activity, spring wheat Moskowskaya 35. It is filed as in vivo, Weizen. The settings on record: for Kornzahl der Ähre bei freier Bestäubung / Kornzahl der Ähre im Isolator / Prozentsatz des Ansetzens von Samen bei freier Bestäubung: Moskowskaya 35, period V, 1% aqueous emulsion, 6 kg/ha in 600 l water; for Prozentsatz des Ansetzens von Samen bei freier Bestäubung: control = 100; for pest or weed control at 6000 g/ha: read-out: Prozentsatz der Sterilität.
Text: as §1, §2, §3, §4, §5
Pflanzen des Sommerweizens Sorte Moskowskaya 35 werden in der V. Periode der Organogenese (nach Kupermann) mit einer l%igen wäßrigen Emulsion von 1,1,3-Tribrompropan, […], 1,1,2,3-Tetrabrompropan, 1,2,3-Tribrompropan, 1,2-Dibrompropan, 1,1,3-Tribrom-3-chlorpropan, 1,2-Dibrom-3-chlorpropan, 1,3-Dibrompropan, 1,1,1,3-Tetrabromheptan bzw. 1,1,3-Tribromheptan behandelt. Die Emulsion enthält als Emulgierungsmittel 0,5 Masse% C12-C14-Kalzium- alkylbenzolsulfonat und als Adjuvans 0,01 Masse% Dimethylformamid. Der Verbrauch an Präparat beträgt 6 kg/ha bei 600 1 Wasserdurchsatz. Als Kontrolle dienen Pflanzen, behandelt mit dem Verdünner ohne Sterilisationsmittel.
Die Prüfergebnisse sind in der Tabelle 2 angegeben. Die gleichen Ergebnisse sind bei der Behandlung des Sommerweizens Sorte Moskowskaya 35 in der VI.Periode der Organogenese erhalten.

Data set [3] deals with tetraploidem Roggen Belta. In words: Field test of gametocidal activity, tetraploid rye Belta. It is filed as in vivo. The settings on record: period V, 1% aqueous emulsion, 6 kg/ha in 600 l water.
Text: as §1, §2, §3, §4, §5
Pflanzen von tetraploidem Roggen Belta werden in der V.Periode der Organogenese (nach Kupermann) mit einer 1%igen wäßrigen Emulsion von 1,1,3-Tribrompropan, 1,1,3--Tribrom-4-chlorbutan, 1,1,2,3-Tetrabrompropan, 1,2,3-Tribrompropan, 1,1,3-Tribrom-3-chlorpropan bzw. 1,2-Dibrom--3-chlorpropan behandelt.
Die Emulsion enthält 0,5 Masse% C12-C14-Kalziumalk^yl-benzolsulfonat und 0,01 Masse% Dimethylsulfoxid. Der Verbrauch an Präparat beträgt 6 kg/ha bei 600 1 Wasserdurchsatz.Die Prüfergebnisse sind in der Tabelle 7 angegeben. Die gleichen Ergebnisse sind bei der Behandlung von tetraploidem Roggen Belta in der VI. Periode der Organogenese erhalten.

Another data set concerns diploidem Roggen Chulpan. In words: Field test of gametocidal activity, diploid rye Chulpan. It is filed as in vivo. The settings on record: for Kornzahl der Ähre bei freier Bestäubung / Kornzahl der Ähre im Isolator / Prozentsatz des Ansetzens von Samen bei freier Bestäubung: Chulpan, period V, 1% aqueous emulsion, 10 kg/ha; for Prozentsatz des Ansetzens von Samen bei freier Bestäubung: control = 100; for pest or weed control at 10000 g/ha: read-out: Prozentsatz der Sterilität.
Text: as §1, §2, §3, §4, §5
Pflanzen von diploidem Roggen Chulpan werden in der V.Periode der Organogenese mit einer 1%igen wäßrigen Emulsion von 1,1,3-Tribrompropan, 1,1,3-Tribrom-4-chlorbutan, 1,1,2,3-Tetrabrompropan, 1,2,3-Tribrompropan, 1,2-Dibrompropan, 1,1,3-Tribrom-3-ohlorpropan, 1,2-Dibrom-3--chlorpropan, 1,3-Dibrompropan, 1,1,1,3-Tetrabromheptan, 1,1,3-Tribromheptan bzw. 1,2-Dibromheptan behandelt. Die Emulsion enthält 0,5 Masse% C12-C14-Kalziumalkylbenzolsul- fonat und 0,01 Masse% Dimethylsulfoxid. Der Verbrauch an Präparat beträgt 10 kg/ha. Die Prüfergebnisse sind in der Tabelle 11 angegeben. Die gleichen Ergebnisse sind bei der Behandlung von diploidem Roggen Chulpan in der VI. Periode der Organogenese erhalten.

Data set [4] deals with diploidem Roggen Kharkovskaya 55. Nature of the data set: Field test of gametocidal activity, diploid rye Kharkovskaya 55. The data set is classed as in vivo.
Text: as §1, §2, §3, §4, §5
Pflanzen von diploidem Roggen Kharkovskaya 55 werden in der V. Periode der Organogenese mit einer l%igen wäßrigen Emulsion von 1,1,3-Tribrompropan, 1,2,3-Tribrompropan, 1,2-Dibrompropan, 1,1,3-Tribrom-3-chlorpropan, 1,2--Dibrom-3-chlorpropan, 1,1,1,3-Tetrabromheptan, 1,1,3-Tribromheptan bzw. 1,2-Dibromheptan behandelt. Die Emulsion enthält 0,5 Masse% C12-C14-Kalziumalkylbenzolsulfonat und 0,01 Masse% Dimethylformamid als Adjuvans. Der Verbrauch an Präparat beträgt 6 kg/ha bei 600 1 Wasserdurchsatz. Die Prüfergebnisse sind in der Tabelle 13 angegeben. Die gleichen Ergebnisse sind bei der Behandlung von diploidem Roggen Kharkovskaya 55 in der VI. Periode der Organogenese erhalten.

Data set [5] deals with Sommerweizens Sorte Rodina. Nature of the data set: Field test of gametocidal activity, spring wheat Rodina. It is filed as in vivo, Weizen. The conditions noted are these: period V, 1% aqueous emulsion, 6 kg/ha in 600 l water.
Text: as §1, §2, §3, §4, §5
Pflanzen des Sommerweizens Sorte Rodina werden in der V.Periode der Organogenese (nach Kupermann) mit einer l%igen wäßrigen Emulsion von 1,3-Dibrompropan, 1,1,1,3-Tetrabromheptan, 1,1,3-Tribromheptan bzw. 1,2-Dibromheptan behandelt. Die Emulsion enthalt 0,5 Masse% C12-C14 Kalziumalk^ylbenzol- sulfonat und 0,01 Masse% Dodezylsulfat. Der Verbrauch an Präparat beträgt 6 Kg/ha bei 600 1 Wasserdurchsatz. Als Kontrolle dienen Pflanzen, behandelt mit dem Verdünner ohne Sterilisationsmittel.
Die Prüfergebnisse sind in der Tabelle 3 angegeben. Die gleichen Ergebnisse sind bei der Behandlung des Sommerweizens Sorte Rodina in der VI. Periode der Organogenese erhalten.

Data set [6] deals with Sommerweizens Sorte Botanicheskaya 4. In words: Field test of gametocidal activity, spring wheat Botanicheskaya 4. The data set is classed as in vivo, Weizen. The settings on record: period V, 1% aqueous emulsion, 6 kg/ha in 600 l water.
Text: as §1, §2, §3, §4, §5
Pflanzen des Sommerweizens Sorte Botanicheskaya 4 werden in der V. Periode der Organogenese (nach Kupermann) mit einer 1%igen wäßrigen Emulsion von 1,3-Dibrompropan, 1,1,1,3-Tetrabromheptan, 1,1,2-Tribromheptan bzw. 1,2--Dibromheptan behandelt. Die Emulsion enthält 0,5 Masse% C12-C14-Kalziumalkylbenzolsulfonat und 0,01 Masse% Dimethylsulfoxid als Adjuvans. Der Verbrauch an Präparat beträgt 6 kg/ha bei 600 1 Wasserdurchsatz. Als Kontrolle dienen Pflanzen, behandelt mit dem Verdünner ohne Sterilisationsmittel.
Die Prüfergebnisse sind in der Tabelle 4 angegeben. Die gleichen Ergebnisse sind bei der Behandlung des Sommerweizens Sorte Botanicheskaya 4 in der VI. Periode der Organogenese erhalten.

For data set [7], the system named is Hirse Sorte Mironovskoye 94. In words: Field test of gametocidal activity, millet Mironovskoye 94. It is filed as in vivo.
Text: as §1, §2, §3, §4, §5
Pflanzen der Hirse Sorte Mironovskoye 94 werden in der V.Periode der Organogenese mit einer 1%igen wäßrigen Emulsion von 1,1,3-Tribrompropan, 1,2,3-Tribrompropan, 1,2-Dibrompropan, 1,2-Dibrom-3-chlorpropan, 1,3-Dibrompropan, 1,1,1,3-Tetrabromheptan, 1,1,3-Tribromheptan, 1,2-Dibromheptan behandelt. Die Emulsion enthält 0,5 Masse% C12-C14--Kalziumalkylbenzolaulfonat und 0,01 Masse% Dimethylsulfoxid als Adjuvans. Der Verbrauch an Präparat beträgt 6 kg/ha bei 600 1 Wasserdurchsatz. Die Prüfergebnisse sind in der Tabelle 15 angegeben. Die gleichen Ergebnisse sind bei der Behandlung der Hirse Sorte Mironovskoye 94 in der VI. Periode der Organogenese erhalten.

The nature of data set [8]: Toxicity in animal test (LD50). Also on record: species or system Mäuse. The settings on record: in vivo, mice stated only for 1,1,3-Tribrompropan, species not given for the others. An excerpt: Alle erfindungsgemäßen Polybromalkane, die als Sterilisationsmittel zur Verwendung kommen, waren auf die Toxizität im Tierversuch geprüft. Die Prüfergebnisse haben ergeben, daß die angegebenen Verbindungen von schwacher oder mittlerer Toxizität sind.

[9] abbreviates: Kharkovskaya 55, period V, 1% aqueous emulsion, 6 kg/ha in 600 l water.
Setting [10] is: read-out: Prozentsatz der Sterilität.
[11] abbreviates: Mironovskoye 94, period V, 1% aqueous emulsion, 6 kg/ha in 600 l water.

The structures appear in SMILES notation.

For `ClC(Br)CC(Br)Br` (stereo not drawn) [Beispiel 6, 1,1,3-Tribrom-3--chlorpropan], the “Kornzahl der Ähre bei freier Bestäubung” value in data set [1] is on record as 37,0; in data set [2], 37,8; in data set [3], 39,8; in the data set on diploidem Roggen Chulpan, 47,7; in data set [4] (setting [9]), 41,7. The “Kornzahl der Ähre im Isolator” value is 1,2 in [1]; 1,2 in [2]; 0,1 in data set [3]; 0,6 with diploidem Roggen Chulpan; 0,1 in [4] (setting [9]). Besides, the “Prozentsatz des Ansetzens von Samen bei freier Bestäubung” value in [1] is reported as 99,2%; in data set [2] it was 98,9%; in [3] (control = 100), 90,0%; in the data set with diploidem Roggen Chulpan, 95,2%; in data set [4] (Kharkovskaya 55, period V, 1% aqueous emulsion, 6 kg/ha in 600 l water, control = 100), 92,5%. For the same compound, the pest or weed control at 1 %, 10000 g/ha in data set [1] is 96.8%. The pest or weed control at 6000 g/ha in data set [2] amounted to 96.3%; in data set [4] (setting [10]) it was 99.8%. For the same compound, the “Prozentsatz der Sterilität” value in data set [3] is 99,9%. In addition, the pest or weed control at 10000 g/ha in the data set on diploidem Roggen Chulpan is 98.8%.

The LD50 is the dose at which mortality reaches 50%. High values mean a less toxic substance, low ones a more toxic substance. As for `BrCCCBr` [Beispiel 8, 1,3-Dibrompropan], in [1], the “Kornzahl der Ähre bei freier Bestäubung” value is 38,7; the “Kornzahl der Ähre im Isolator” value is 0,0; the “Prozentsatz des Ansetzens von Samen bei freier Bestäubung” value is reported as 93,0%; the pest or weed control at 1 %, 10000 g/ha is 100%. Also, in data set [2], the “Kornzahl der Ähre bei freier Bestäubung” value was 32,7, the “Kornzahl der Ähre im Isolator” value is recorded as 0,0, the “Prozentsatz des Ansetzens von Samen bei freier Bestäubung” value is 85,6% and the pest or weed control at 6000 g/ha is 100%. Further, in data set [5], the “Kornzahl der Ähre bei freier Bestäubung” value was 37,1, the “Kornzahl der Ähre im Isolator” value was 0,0 and the “Prozentsatz der Sterilität” value is recorded as 100,0%. Further, the “Prozentsatz des Ansetzens von freier Bestäubung” value in [5] (control = 100) is 91,8%. For the same compound, in [6], the “Kornzahl der Ähre bei freier Bestäubung” value is 24,7, the “Kornzahl der Ähre im Isolator” value was 0,0 and the “Prozentsatz der Sterilität” value is given as 100,0%. Besides, in the data set on diploidem Roggen Chulpan, the “Kornzahl der Ähre bei freier Bestäubung” value is listed as 41,7, the “Kornzahl der Ähre im Isolator” value was 0,1, the “Prozentsatz des Ansetzens von Samen bei freier Bestäubung” value is listed as 83,2% and the pest or weed control at 10000 g/ha was found to be 99.8%. In data set [7] (setting [11]), the “Kornzahl der Rispe bei freier Bestäubung” value is recorded as 212,7 and the “Kornzahl der Rispe im Isolator” value is 0,0. Besides, in data set [7] (Mironovskoye 94, period V, 1% aqueous emulsion, 6 kg/ha in 600 l water, control = 100), the “Prozentsatz des Ansetzens von Samen bei freier Bestäubung” value is given as 86,9%. The pest or weed control at 6000 g/ha in data set [7] (setting [10]) came to 100%. The compound further had an LD50 in data set [8] of 473 ± 25 mg/kg.

As to `CCCCCC(Br)C(Br)Br` (stereo not drawn) [Beispiel 28, 1,1,2-Tribromheptan], in [6], the “Kornzahl der Ähre bei freier Bestäubung” value is given as 29,2, the “Kornzahl der Ähre im Isolator” value is given as 0,0 and the “Prozentsatz der Sterilität” value was 100,0%. Also, the “Prozentsatz des Ansetzens von Samen bei freier Bestäubung” value in data set [6] (control = 100) was 94,5%.
